Reference: US12358886B2, “Heterocyclic compounds for use in the treatment of cancer” (Artios Pharma Limited, priority 2019, dated 2025)

target: Polθ protein (amino acids 2-2590) (Homo sapiens, UniProt O75417); assay: Polθ full length enzyme potency assay (PicoGreen); settings: Polθ IC50 (nM), full length N-His, C-term FLAG tagged Polθ, PicoGreen fluorescence, 12 point concentration response
Sequence (O75417 2-2590): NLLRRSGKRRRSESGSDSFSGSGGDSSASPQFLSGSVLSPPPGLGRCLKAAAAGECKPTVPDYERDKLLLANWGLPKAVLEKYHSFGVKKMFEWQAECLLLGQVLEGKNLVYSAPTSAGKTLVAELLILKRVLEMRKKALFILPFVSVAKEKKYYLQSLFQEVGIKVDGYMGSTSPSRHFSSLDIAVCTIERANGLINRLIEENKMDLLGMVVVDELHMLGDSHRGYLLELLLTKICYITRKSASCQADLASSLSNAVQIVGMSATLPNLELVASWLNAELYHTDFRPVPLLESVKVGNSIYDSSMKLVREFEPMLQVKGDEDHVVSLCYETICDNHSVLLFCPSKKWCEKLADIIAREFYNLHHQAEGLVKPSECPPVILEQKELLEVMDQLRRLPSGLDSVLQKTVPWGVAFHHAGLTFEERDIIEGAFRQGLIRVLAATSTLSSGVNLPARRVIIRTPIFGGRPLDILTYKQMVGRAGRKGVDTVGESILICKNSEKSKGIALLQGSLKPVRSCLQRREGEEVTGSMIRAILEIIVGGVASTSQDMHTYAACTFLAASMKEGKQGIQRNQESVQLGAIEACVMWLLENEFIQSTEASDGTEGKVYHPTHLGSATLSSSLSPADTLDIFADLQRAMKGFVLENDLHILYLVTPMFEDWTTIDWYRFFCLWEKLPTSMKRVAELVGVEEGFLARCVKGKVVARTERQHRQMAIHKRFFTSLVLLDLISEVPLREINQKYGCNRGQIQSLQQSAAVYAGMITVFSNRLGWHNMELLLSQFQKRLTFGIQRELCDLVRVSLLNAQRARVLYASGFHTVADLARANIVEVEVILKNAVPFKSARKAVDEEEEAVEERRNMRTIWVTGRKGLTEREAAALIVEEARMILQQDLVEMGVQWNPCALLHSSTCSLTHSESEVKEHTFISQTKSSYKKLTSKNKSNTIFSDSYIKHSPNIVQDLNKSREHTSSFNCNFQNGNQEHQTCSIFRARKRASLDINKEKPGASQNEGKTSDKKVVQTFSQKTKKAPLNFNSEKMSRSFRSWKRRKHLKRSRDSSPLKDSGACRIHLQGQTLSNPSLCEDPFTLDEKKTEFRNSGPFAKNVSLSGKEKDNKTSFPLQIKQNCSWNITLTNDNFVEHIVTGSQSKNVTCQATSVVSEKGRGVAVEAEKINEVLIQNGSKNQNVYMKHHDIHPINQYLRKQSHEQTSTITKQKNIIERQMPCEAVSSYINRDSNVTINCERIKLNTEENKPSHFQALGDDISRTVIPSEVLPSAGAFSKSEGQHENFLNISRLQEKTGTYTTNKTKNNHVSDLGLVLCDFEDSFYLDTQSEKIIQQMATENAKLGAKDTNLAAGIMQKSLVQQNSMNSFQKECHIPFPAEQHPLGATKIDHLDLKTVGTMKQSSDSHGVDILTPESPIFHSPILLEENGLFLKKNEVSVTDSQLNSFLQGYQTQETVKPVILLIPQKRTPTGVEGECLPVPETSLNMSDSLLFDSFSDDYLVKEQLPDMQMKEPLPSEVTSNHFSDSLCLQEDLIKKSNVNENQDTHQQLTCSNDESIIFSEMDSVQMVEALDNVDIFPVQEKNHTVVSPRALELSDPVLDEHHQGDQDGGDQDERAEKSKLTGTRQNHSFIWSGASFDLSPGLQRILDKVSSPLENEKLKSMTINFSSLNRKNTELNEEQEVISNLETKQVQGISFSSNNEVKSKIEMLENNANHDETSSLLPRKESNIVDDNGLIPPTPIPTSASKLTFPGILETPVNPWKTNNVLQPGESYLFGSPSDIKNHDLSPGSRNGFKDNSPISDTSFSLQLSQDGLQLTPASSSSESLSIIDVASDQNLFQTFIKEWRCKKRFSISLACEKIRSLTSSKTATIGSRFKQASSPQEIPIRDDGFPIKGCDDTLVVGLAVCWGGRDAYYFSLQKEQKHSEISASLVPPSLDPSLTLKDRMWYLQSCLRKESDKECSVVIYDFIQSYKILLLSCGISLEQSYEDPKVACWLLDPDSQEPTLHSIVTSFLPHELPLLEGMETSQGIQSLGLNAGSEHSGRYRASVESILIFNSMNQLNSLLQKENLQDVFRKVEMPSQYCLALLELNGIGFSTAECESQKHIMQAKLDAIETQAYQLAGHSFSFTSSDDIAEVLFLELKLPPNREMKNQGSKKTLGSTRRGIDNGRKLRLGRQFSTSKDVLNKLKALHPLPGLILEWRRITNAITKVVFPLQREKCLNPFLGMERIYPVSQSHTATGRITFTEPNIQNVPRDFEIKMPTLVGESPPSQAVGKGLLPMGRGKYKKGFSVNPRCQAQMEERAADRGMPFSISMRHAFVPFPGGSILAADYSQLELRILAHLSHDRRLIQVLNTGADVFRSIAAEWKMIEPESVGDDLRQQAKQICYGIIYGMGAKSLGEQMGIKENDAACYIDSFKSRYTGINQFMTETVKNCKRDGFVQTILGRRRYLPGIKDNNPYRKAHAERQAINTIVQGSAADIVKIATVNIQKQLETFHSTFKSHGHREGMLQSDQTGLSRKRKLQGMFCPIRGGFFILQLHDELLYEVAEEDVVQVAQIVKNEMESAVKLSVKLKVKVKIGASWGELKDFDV

Structure (SMILES) | IC50 [nM]
CCN(C(=O)[C@@H]1COC(=O)N1c1cc(C(C)(F)F)cc(C)n1)c1ccc(F)c(Cl)c1 [Example 125, (S)—N-(3-Chloro-4-fluorophenyl)-3-(4-(1,1-difluoroethyl)-6-methylpyridin-2-yl)-N-ethyl-2-oxooxazolidine-4-carboxamide] | 261
Cc1cc(C(F)(F)F)cc(N2C(=O)OC[C@H]2C(=O)N(C)c2ccc3cc[nH]c3c2)n1 [Example 126, (S)—N-(1H-Indol-6-yl)-N-methyl-3-(6-methyl-4-(trifluoromethyl)pyridin-2-yl)-2-oxooxazolidine-4-carboxamide] | 11
Cc1cc(C(F)(F)F)cc(N2C(=O)OC[C@H]2C(=O)N(C)c2ccc3cc[nH]c3n2)n1 [Example 127, (S)—N-Methyl-3-(6-methyl-4-(trifluoromethyl)pyridin-2-yl)-2-oxo-N-(1H-pyrrolo[2,3-b]pyridin-6-yl)oxazolidine-4-carboxamide] | 15
CCN(C(=O)[C@@H]1C[C@H](N2CCOC(CO)C2)CN1c1cc(C(F)(F)F)cc(C)n1)c1ccc(F)c(F)c1 (stereo partly drawn) [Example 128, (2S,4S)-N-(3,4-Difluorophenyl)-N-ethyl-4-(2-(hydroxymethyl)morpholino)-1-(6-methyl-4-(trifluoromethyl)pyridin-2-yl)pyrrolidine-2-carboxamide] | 42
CCN(C(=O)[C@@H]1C[C@H](N2CCC(O)C2)CN1c1cc(C(F)(F)F)cc(C)n1)c1ccc(F)c(F)c1 (stereo partly drawn) [Example 129, (3S,5S)-N-(3,4-Difluorophenyl)-N-ethyl-3-hydroxy-1′-(6-methyl-4-(trifluoromethyl)pyridin-2-yl)-[1,3′-bipyrrolidine]-5′-carboxannide] | 78
CCN(C(=O)[C@@H]1C[C@H](N2CC(O)C2)CN1c1cc(C(F)(F)F)cc(C)n1)c1ccc(F)c(F)c1 [Example 130, (2S,4S)-N-(3,4-Difluorophenyl)-N-ethyl-4-(3-hydroxyazetidin-1-yl)-1-(6-methyl-4-(trifluoromethyl)pyridin-2-yl)pyrrolidine-2-carboxamide] | 100
CCN(C(=O)[C@@H]1C[C@H](N[C@@H]2CCOC[C@H]2O)CN1c1cc(C(F)(F)F)cc(C)n1)c1ccc(F)c(F)c1 [Example 131, (2S,4S)-N-(3,4-Difluorophenyl)-N-ethyl-4-(((3S,4R)-3-hydroxytetrahydro-2H-pyran-4-yl)amino)-1-(6-methyl-4-(trifluoromethyl)pyridin-2-yl)pyrrolidine-2-carboxamide] | 248
CCN(C(=O)[C@@H]1C[C@H](N[C@@H]2COCC[C@H]2O)CN1c1cc(C(F)(F)F)cc(C)n1)c1ccc(F)c(F)c1 [Example 132, (2S,4S)-N-(3,4-Difluorophenyl)-N-ethyl-4-(((3R,4R)-4-hydroxytetrahydro-2H-pyran-3-yl)amino)-1-(6-methyl-4-(trifluoromethyl)pyridin-2-yl)pyrrolidine-2-carboxamide] | 156
CCN(C(=O)[C@@H]1C[C@H](N[C@@H]2CCC[C@H]2O)CN1c1cc(C(F)(F)F)cc(C)n1)c1ccc(F)c(F)c1 [Example 133, (2S,4S)-N-(3,4-Difluorophenyl)-N-ethyl-4-(((1R,2R)-2-hydroxycyclopentyl)amino)-1-(6-methyl-4-(trifluoromethyl)pyridin-2-yl)pyrrolidine-2-carboxamide] | 122
CCN(C(=O)[C@@H]1C[C@H](N[C@H]2CCC[C@H]2O)CN1c1cc(C(F)(F)F)cc(C)n1)c1ccc(F)c(F)c1 [Example 134, (2S,4S)-N-(3,4-Difluorophenyl)-N-ethyl-4-(((1S,2R)-2-hydroxycyclopentyl)amino)-1-(6-methyl-4-(trifluoromethyl)pyridin-2-yl)pyrrolidine-2-carboxamide] | 124
CCN(C(=O)[C@@H]1C[C@H](N[C@H]2CN(C(=O)OC(C)(C)C)C[C@H]2O)CN1c1cc(C(F)(F)F)cc(C)n1)c1ccc(F)c(F)c1 [Example 136, tert-Butyl (3S,4R)-3-(((3S,5S)-5-((3,4-difluorophenyl)(ethyl)carbamoyl)-1-(6-methyl-4-(trifluoromethyl)pyridin-2-yl)pyrrolidin-3-yl)amino)-4-hydroxypyrrolidine-1-carboxylate] | 45
CCN(C(=O)[C@@H]1C[C@H](NC2CNC(=O)C2)CN1c1cc(C(F)(F)F)cc(C)n1)c1ccc(F)c(F)c1 (stereo partly drawn) [Example 137, (2S,4S)-N-(3,4-Difluorophenyl)-N-ethyl-1-(6-methyl-4-(trifluoromethyl)pyridin-2-yl)-4-((5-oxopyrrolidin-3-yl)amino)pyrrolidine-2-carboxamide] | 300
CCN(C(=O)[C@@H]1C[C@H](NC2COC2)CN1c1cc(C(F)(F)F)cc(C)n1)c1ccc(F)c(F)c1 [Example 138, (2S,4S)-N-(3,4-Difluorophenyl)-N-ethyl-1-(6-methyl-4-(trifluoromethyl)pyridin-2-yl)-4-(oxetan-3-ylamino)pyrrolidine-2-carboxamide] | 165
CCN(C(=O)[C@@H]1C[C@H](N(C)[C@@H]2CCOC[C@H]2O)CN1c1cc(C(F)(F)F)cc(C)n1)c1ccc(F)c(F)c1 [Example 139, (2S,4S)—N-(3,4-Difluorophenyl)-N-ethyl-4-(((3S,4R)-3-hydroxytetrahydro-2H-pyran-4-yl)(methyl)amino)-1-(6-methyl-4-(trifluoromethyl)pyridin-2-yl)pyrrolidine-2-carboxamide] | 164
CCN(C(=O)[C@@H]1C[C@H](N(C)[C@@H]2COCC[C@H]2O)CN1c1cc(C(F)(F)F)cc(C)n1)c1ccc(F)c(F)c1 [Example 140, (2S,4S)-N-(3,4-Difluorophenyl)-N-ethyl-4-(((3R,4R)-4-hydroxytetrahydro-2H-pyran-3-yl)(methyl)amino)-1-(6-methyl-4-(trifluoromethyl)pyridin-2-yl)pyrrolidine-2-carboxamide] | 60
CCN(C(=O)[C@@H]1C[C@H](N(C)[C@@H]2CCC[C@H]2O)CN1c1cc(C(F)(F)F)cc(C)n1)c1ccc(F)c(F)c1 [Example 141, (2S,4S)-N-(3,4-Difluorophenyl)-N-ethyl-4-(((1R,2R)-2-hydroxycyclopentyl)(methyl)amino)-1-(6-methyl-4-(trifluoromethyl)pyridin-2-yl)pyrrolidine-2-carboxamide] | 56
CCN(C(=O)[C@@H]1C[C@H](N(C)[C@H]2CCC[C@H]2O)CN1c1cc(C(F)(F)F)cc(C)n1)c1ccc(F)c(F)c1 [Example 142, (2S,4S)-N-(3,4-Difluorophenyl)-N-ethyl-4-(((1S,2R)-2-hydroxycyclopentyl)(methyl)amino)-1-(6-methyl-4-(trifluoromethyl)pyridin-2-yl)pyrrolidine-2-carboxamide] | 160
CCN(C(=O)[C@@H]1C[C@H](N(C)[C@H]2CN(C(=O)OC(C)(C)C)C[C@H]2O)CN1c1cc(C(F)(F)F)cc(C)n1)c1ccc(F)c(F)c1 [Example 144, tert-Butyl (3S,4R)-3-(((3S,5S)-5-((3,4-difluorophenyl)(ethyl)carbamoyl)-1-(6-methyl-4-(trifluoromethyl)pyridin-2-yl)pyrrolidin-3-yl)(methyl)amino)-4-hydroxypyrrolidine-1-carboxylate] | 1310
CCN(C(=O)[C@@H]1C[C@H](N(C)C2CNC(=O)C2)CN1c1cc(C(F)(F)F)cc(C)n1)c1ccc(F)c(F)c1 (stereo partly drawn) [Example 145, (2S,4S)-N-(3,4-Difluorophenyl)-N-ethyl-4-(methyl(5-oxopyrrolidin-3-yl)amino)-1-(6-methyl-4-(trifluoromethyl)pyridin-2-yl)pyrrolidine-2-carboxamide] | 708
CCN(C(=O)[C@@H]1C[C@H](N(C)C2COC2)CN1c1cc(C(F)(F)F)cc(C)n1)c1ccc(F)c(F)c1 [Example 146, (2S,4S)-N-(3,4-Difluorophenyl)-N-ethyl-4-(methyl(oxetan-3-yl)amino)-1-(6-methyl-4-(trifluoromethyl)pyridin-2-yl)pyrrolidine-2-carboxamide] | 163
CCN(C(=O)[C@@H]1C[C@H](N2CCOC(CO)C2)CN1c1nc(C)cc(C(F)(F)F)c1C#N)c1cccc(Cl)c1 (stereo partly drawn) [Example 147, (2S,4S)-N-(3-Chlorophenyl)-1-(3-cyano-6-methyl-4-(trifluoromethyl)pyridin-2-yl)-N-ethyl-4-(2-(hydroxymethyl)morpholino)pyrrolidine-2-carboxamide] | 28
CCN(C(=O)[C@@H]1C[C@H](N2CCOC(CO)C2)CN1c1nc(C)cc(C(F)(F)F)c1C#N)c1ccc(Cl)c(Cl)c1 (stereo partly drawn) [Example 148, (2S,4S)-1-(3-Cyano-6-methyl-4-(trifluoromethyl)pyridin-2-yl)-N-(3,4-dichlorophenyl)-N-ethyl-4-(2-(hydroxymethyl)-morpholino)pyrrolidine-2-carboxamide] | 6
CCN(C(=O)[C@@H]1C[C@H](N2CCOC(CO)C2)CN1c1nc(C)cc(C(F)(F)F)c1C#N)c1ccc(C)c(Cl)c1 (stereo partly drawn) [Example 149, (2S,4S)-N-(3-Chloro-4-methylphenyl)-1-(3-cyano-6-methyl-4-(trifluoromethyl)pyridin-2-yl)-N-ethyl-4-(2-(hydroxymethyl)morpholino)pyrrolidine-2-carboxamide] | 5
CCN(C(=O)[C@@H]1C[C@H](N2CCOC(CO)C2)CN1c1nc(C)cc(C(F)(F)F)c1C#N)c1ccc(F)c(C)c1 (stereo partly drawn) [Example 150, (2S,4S)-1-(3-Cyano-6-methyl-4-(trifluoromethyl)pyridin-2-yl)-N-ethyl-N-(4-fluoro-3-methylphenyl)-4-(2-(hydroxymethyl)morpholino)pyrrolidine-2-carboxamide] | 11
Cc1cc(C(F)(F)F)c(C#N)c(N2C[C@@H](N3CCOC(CO)C3)C[C@H]2C(=O)N(C)c2ccc(F)c(Cl)c2)n1 (stereo partly drawn) [Example 151, (2S,4S)-N-(3-Chloro-4-fluorophenyl)-1-(3-cyano-6-methyl-4-(trifluoromethyl)pyridin-2-yl)-4-(2-(hydroxymethyl)morpholino)-N-methylpyrrolidine-2-carboxamide] | 23
CCN(C(=O)[C@@H]1C[C@H](N2CCOC[C@@H]2CO)CN1c1nc(C)cc(C(F)(F)F)c1C#N)c1ccc(F)c(Cl)c1 [Example 152, (2S,4S)-N-(3-Chloro-4-fluorophenyl)-1-(3-cyano-6-methyl-4-(trifluoromethyl)pyridin-2-yl)-N-ethyl-4-((S)-3-(hydroxymethyl)morpholino)pyrrolidine-2-carboxamide] | 26
